Like-named read-outs stand apart in the source and are kept apart here.
Experiment: First-in-human SAD and MAD study, pharmacokinetics
Format: in vivo
Protocol: A first-in-human study was conducted to evaluate the safety, tolerability and pharmacokinetics (PK) of single and multiple ascending doses (SAD and MAD) of oral Compound A.
In the SAD Phase, 32 healthy volunteers were randomized (3:1) to Compound A (5, 15, 20, 25 or 30 mg) or placebo. The study featured an adaptive design. A crossover food effect cohort (N=10) was also completed with single doses of 20 mg. A sub-set of 8 male subjects were also assessed with Transcranial Magnetic Stimulation (TMS) for effects on cortical excitability (see Examples 4 and 5).
Repeat doses of Compound A (15 mg QD) were evaluated in a fasted and fed state over 7 and 10 days, respectively. Repeat doses of Compound A (25 mg QD) were also evaluated in a fed state over 10 days.
Compound A was formulated as an immediate release capsule. Serial plasma PK samples were collected for all cohorts. Safety evaluations throughout the study included adverse event (AE) monitoring, clinical laboratory tests, vital signs, ECGs, physical examinations and Columbia-Suicide Severity Rating Scale.

[1] = human, plasma, oral, 5 mg, SAD, 5 mg fasted, N=3, Mean ± SD
[2] = human, plasma, oral, 15 mg, MAD, 15 mg Fed, Day 1, N=6, mean
[3] = human, plasma, oral, 15 mg, MAD, 15 mg Fed, Day 10, N=6, mean
[4] = human, plasma, oral, 15 mg, MAD, 15 mg QD Fasted, Day 1, N=6, mean
[5] = human, plasma, oral, 15 mg, MAD, 15 mg QD Fasted, Day 7, N=6, mean
[6] = human, plasma, oral, 15 mg, SAD, 15 mg fasted, N=3, Mean ± SD
[7] = human, plasma, oral, 20 mg, SAD, 20 mg fasted, N=6, Mean ± SD
[8] = human, plasma, oral, 25 mg, MAD, 25 mg QD Fed, Day 1, N=6, mean
[9] = human, plasma, oral, 25 mg, MAD, 25 mg QD Fed, Day 10, N=6, mean
[10] = human, plasma, oral, 25 mg, SAD, 25 mg fed standard breakfast, N=6, Mean ± SD
[11] = human, plasma, oral, 30 mg, SAD, 30 mg fasted, N=6, Mean ± SD

**Q.** Which “absorption enhanced by food, AUCinf” value (crossover food effect cohort, 20 mg) does the source give for `Cc1cc(N2CCc3cc(F)ccc3C2)cc(C)c1NC(=O)CC(C)(C)C` [Compound A, N-[4-(6-fluoro-3,4-dihydro-1H-isoquinolin-2-yl)-2,6-dimethylphenyl]-3,3-dimethylbutanamide] here?
**A.** The value was ~1.8 fold.

**Q.** And the “dose proportionality of exposure” value (fasted state)?
**A.** The value was “less than dose-proportional exposure”.

**Q.** What about the Cmax [1] of the same compound?
**A.** The Cmax was 7.13 ± 6.12 ng/mL.

**Q.** And the Tmax [1]?
**A.** Its Tmax is 3.17 ± 2.47 h.

**Q.** And the AUC(0-t) (human, plasma, oral, 5 mg, SAD, 5 mg fasted, N=3, Mean ± SD, read-out: AUC0-24)?
**A.** The AUC(0-t) was 74.6 ± 50.5 ng·h/mL.

**Q.** What about the AUC(0-t) (human, plasma, oral, 5 mg, SAD, 5 mg fasted, N=3, tLast 32 h, Mean ± SD, read-out: AUC0-t) of the same compound?
**A.** The AUC(0-t) was 91.3 ± 54.2 ng·h/mL.

**Q.** What about the Cmax [2] of the same compound?
**A.** Its Cmax is 35.9 ng/mL.

**Q.** And the Tmax [2]?
**A.** Its Tmax is 4.37 h.

**Q.** What about the AUC(0-t) (human, plasma, oral, 15 mg, MAD, 15 mg Fed, Day 1, N=6, mean, read-out: AUC0-24) of the same compound?
**A.** The AUC(0-t) was 353 ng·h/mL.

**Q.** And the Cmax [3]?
**A.** The Cmax was 60.8 ng/mL.

**Q.** What about the Tmax [3] of the same compound?
**A.** The Tmax was 3.69 h.

**Q.** What about the AUC(0-t) (human, plasma, oral, 15 mg, MAD, 15 mg Fed, Day 10, N=6, mean, read-out: AUC0-24) of the same compound?
**A.** Its AUC(0-t) is 1020 ng·h/mL.

**Q.** And the AUC(0-t) (human, plasma, oral, 15 mg, MAD, 15 mg Fed, Day 10, N=6, mean, read-out: AUC0-t)?
**A.** Its AUC(0-t) is 4950 ng·h/mL.

**Q.** And the Cmax [4]?
**A.** Its Cmax is 10.5 ng/mL.

**Q.** And the Tmax [4]?
**A.** The Tmax was 2.68 h.

**Q.** And the AUC(0-t) (human, plasma, oral, 15 mg, MAD, 15 mg QD Fasted, Day 1, N=6, mean, read-out: AUC0-24)?
**A.** The AUC(0-t) was 125 ng·h/mL.

**Q.** What about the Cmax [5] of the same compound?
**A.** The Cmax was 45.1 ng/mL.

**Q.** And the Tmax [5]?
**A.** The Tmax was 2.69 h.

**Q.** And the AUC(0-t) (human, plasma, oral, 15 mg, MAD, 15 mg QD Fasted, Day 7, N=6, mean, read-out: AUC0-24)?
**A.** The AUC(0-t) was 757 ng·h/mL.

**Q.** What about the AUC(0-t) (human, plasma, oral, 15 mg, MAD, 15 mg QD Fasted, Day 7, N=6, mean, read-out: AUC0-t) of the same compound?
**A.** The AUC(0-t) was 4260 ng·h/mL.

**Q.** And the Cmax [6]?
**A.** The Cmax was 27.3 ± 11.1 ng/mL.

**Q.** And the Tmax [6]?
**A.** Its Tmax is 4.5 ± 2.6 h.

**Q.** And the AUC(0-t) (human, plasma, oral, 15 mg, SAD, 15 mg fasted, N=3, Mean ± SD, read-out: AUC0-24)?
**A.** The AUC(0-t) was 328 ± 141 ng·h/mL.

**Q.** What about the AUC(0-t) (human, plasma, oral, 15 mg, SAD, 15 mg fasted, N=3, tLast 32 h, Mean ± SD, read-out: AUC0-t) of the same compound?
**A.** Its AUC(0-t) is 397 ± 166 ng·h/mL.

**Q.** What about the Cmax [7] of the same compound?
**A.** Its Cmax is 31.5 ± 21.1 ng/mL.

**Q.** What about the Tmax [7] of the same compound?
**A.** Its Tmax is 3.69 ± 2.05 h.

**Q.** And the AUC(0-t) (human, plasma, oral, 20 mg, SAD, 20 mg fasted, N=6, Mean ± SD, read-out: AUC0-24)?
**A.** The AUC(0-t) was 376 ± 220 ng·h/mL.

**Q.** And the AUC(0-t) (human, plasma, oral, 20 mg, SAD, 20 mg fasted, N=6, tLast 72 h, Mean ± SD, read-out: AUC0-t)?
**A.** Its AUC(0-t) is 709 ± 337 ng·h/mL.

**Q.** And the Cmax [8]?
**A.** Its Cmax is 49.6 ng/mL.

**Q.** What about the Tmax [8] of the same compound?
**A.** The Tmax was 4.38 h.

**Q.** And the AUC(0-t) (human, plasma, oral, 25 mg, MAD, 25 mg QD Fed, Day 1, N=6, mean, read-out: AUC0-24)?
**A.** The AUC(0-t) was 592 ng·h/mL.

**Q.** And the Cmax [9]?
**A.** The Cmax was 96.7 ng/mL.

**Q.** What about the Tmax [9] of the same compound?
**A.** The Tmax was 4.99 h.

**Q.** And the AUC(0-t) (human, plasma, oral, 25 mg, MAD, 25 mg QD Fed, Day 10, N=6, mean, read-out: AUC0-24)?
**A.** The AUC(0-t) was 1720 ng·h/mL.

**Q.** And the AUC(0-t) (human, plasma, oral, 25 mg, MAD, 25 mg QD Fed, Day 10, N=6, mean, read-out: AUC0-t)?
**A.** Its AUC(0-t) is 8010 ng·h/mL.

**Q.** What about the Cmax [10] of the same compound?
**A.** Its Cmax is 45.8 ± 14.3 ng/mL.

**Q.** And the Tmax [10]?
**A.** Its Tmax is 4.51 ± 1.22 h.

**Q.** And the AUC(0-t) (human, plasma, oral, 25 mg, SAD, 25 mg fed standard breakfast, N=6, Mean ± SD, read-out: AUC0-24)?
**A.** The AUC(0-t) was 482 ± 130 ng·h/mL.

**Q.** And the AUC(0-t) (human, plasma, oral, 25 mg, SAD, 25 mg fed, N=6, tLast 146 h, Mean ± SD, read-out: AUC0-t)?
**A.** The AUC(0-t) was 1470 ± 270 ng·h/mL.

**Q.** And the Cmax [11]?
**A.** Its Cmax is 35.5 ± 33.5 ng/mL.

**Q.** And the Tmax [11]?
**A.** The Tmax was 3.17 ± 1.48 h.

**Q.** And the AUC(0-t) (human, plasma, oral, 30 mg, SAD, 30 mg fasted, N=6, Mean ± SD, read-out: AUC0-24)?
**A.** The AUC(0-t) was 369 ± 219 ng·h/mL.

**Q.** What about the AUC(0-t) (human, plasma, oral, 30 mg, SAD, 30 mg fasted, N=6, tLast 72 h, Mean ± SD, read-out: AUC0-t) of the same compound?
**A.** Its AUC(0-t) is 837 ± 280 ng·h/mL.

**Q.** What about the half-life at 10 days (human, plasma, oral, MAD, 15 mg Fed, Day 10, N=6, mean) of the same compound?
**A.** The half-life at 10 days was 9.96 days.
